Results: patent publication US20230147835A1, “METHODS OF TREATING SYSTEMIC SCLEROSIS” (Horizon Therapeutics Ireland DAC, priority 2020, published 2023)
“Also recorded” adds a separate entry of the source.

Assays:
Phase 1 studies = type: in vivo; conditions: multiple Phase 1 studies
From the text: See, Khanna, et al. (2007) Curr Rheumatol Rep. 9:151-7, which is incorporated herein by reference for all purposes.

[1] = tested on: patients with early dcSSc; experiment: Phase 2 8-week double-blind placebo-controlled study with 16-week open-label extension; type: in vivo, human
From the text: The primary end point was safety during the double-blind phase of the trial. Exploratory end points included the identification of an LPA-induced gene signature in patients' skin.
Seventeen of 32 patients were randomly assigned to receive placebo and 15 to receive Compound 1. Thirty patients participated in the open-label extension study. […] At week 8, the reduction in MRSS was numerically greater in the Compound 1 group than in the placebo group (mean±SD change −3.57±4.18 versus −2.76±4.85; treatment effect −1.2 [95% confidence interval −4.37, 2.02]).

[2] = tested on: presensitized mice treated with ovalbumin; experiment: Broncho-alveolar lavage of presensitized mice treated with ovalbumin; conditions: mouse, in vivo
[3] = tested on: bleomycin-induced skin fibrosis; experiment: Bleomycin-induced skin fibrosis model, therapeutic protocol; type: in vivo, mouse; conditions: 50 mg/kg/day
From the text: (§1) Two models of skin fibrosis were used to evaluate the effect of Compound 1 in comparison with imatinib mesylate, used as a reference.

[4] = tested on: hypertension or diabetes-related cardiac hypertrophy, fibrosis and heart failure; experiment: Models of hypertension or diabetes-related cardiac hypertrophy, fibrosis and heart failure; conditions: in vivo
From the text: (§2) All these pathological events can be observed in SSc patients at different levels and further support the use of Compound 1 in these patients.

models of thrombosis [5] = experiment: Acute models of coagulation and arterial thrombosis (rats); type: in vivo; conditions: two models in rats
From the text: as §2

[6] = tested on: hypertension-induced or nephrotoxicity-induced renal failure; experiment: Models of hypertension-induced or nephrotoxicity-induced renal failure; conditions: in vivo
From the text: as §2

[7] = target: lysophosphatidic acid receptor 1 (LPAR1) (Homo sapiens, UniProt Q92633); conditions: cited from earlier work
Chain of lysophosphatidic acid receptor 1 (LPAR1) (Q92633 whole entry, species assumed): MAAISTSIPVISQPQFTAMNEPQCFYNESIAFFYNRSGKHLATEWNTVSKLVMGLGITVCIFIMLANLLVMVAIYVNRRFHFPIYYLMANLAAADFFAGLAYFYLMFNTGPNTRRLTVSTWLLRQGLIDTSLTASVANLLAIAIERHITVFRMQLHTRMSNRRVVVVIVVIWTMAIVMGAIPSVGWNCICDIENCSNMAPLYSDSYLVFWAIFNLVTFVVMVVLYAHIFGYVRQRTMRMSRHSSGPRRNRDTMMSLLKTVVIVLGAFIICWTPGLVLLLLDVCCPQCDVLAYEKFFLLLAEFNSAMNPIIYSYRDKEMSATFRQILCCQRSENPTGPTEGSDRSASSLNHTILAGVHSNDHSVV

tight skin (Tsk-1) mice = experiment: Tight skin (Tsk-1) mice skin fibrosis model; type: in vivo, mouse; conditions: 30 mg/kg/day; reference imatinib
From the text: as §1

models of thrombosis [8] = experiment: Model of thrombosis (mouse); type: in vivo; conditions: one model in mouse
From the text: as §2

[9] = 24-weeks of continuous treatment
[10] = Subjects switched from placebo to Compound 1 (16-week open label extension)
[11] = initial Compound 1 group, treatment up to 24 weeks, versus baseline

## COc1ccc(C(=O)NC2(C(=O)O)Cc3ccccc3C2)cc1OCCc1cccc(C)c1 [Compound 1, 2-(4-methoxy-3-(3-methylphenethoxy)benzamido)-2,3-dihydro-1H-indene-2-carboxylic acid]
Phase 1 studies
  safety and tolerability: safe and well tolerated
[1]; [9]
  Median Decrease in mRSS: −7.5
  Responder Rate: 78.6%
[1]; FIG. 1
  LPA-related genes, biomarker analysis of skin biopsies: reductions
[1]; Phase 2 double-blind phase and open label extension
  Modified Rodnan Skin Score (mRSS): improvement
[1]; [10]
  Median Decrease in mRSS: −7.0
  Responder Rate: 69.2%
[1]; blinded phase
  most frequent adverse events: headache, diarrhea, nausea, and falling
[1]; difference was not significant
  MRSS during the study: improved
[1]; in vivo
  tolerability in patients with dcSSc: well tolerated
[1]; [11]
  disease biomarker COMP: numerical improvement versus baseline
  disease biomarker TSP1: numerical improvement versus baseline
[1]; open-label extension
  safety profile: acceptable
[1]; week 8
  reduction of LPA-related genes in skin samples versus placebo: greater reduction
[1]; week 8, double-blind phase
  change in MRSS (mean±SD): −3.57±4.18
[1]; week 8, 95% confidence interval −4.37, 2.02
  treatment effect on MRSS versus placebo: −1.2
[1]; week 24
  HAQ-DI: clinically significant improvement
[2]
  accumulation of leukocytes and total inflammatory cells in broncho-alveolar lavage: significant inhibitory effect
  inflammation in a model of lung injury with predominant Th2-type response: reduces inflammation
[3]; therapeutic protocol
  collagen content in mouse skin: able to reverse
  dermal thickness in mouse skin: able to reverse
  myofibroblast differentiation in mouse skin: able to reverse
[3]; reference imatinib mesylate
  effect on these markers compared with imatinib: comparable with the effects of imatinib
[4]
  arterial stiffness: positive effect
  blood pressure: mostly unchanged
  cardiac function and structure: beneficial effect
  cardiac systolic and diastolic function: improves
  heart fibrosis: inhibits fibrosis
Models of thrombosis [5]
  antithrombotic activity: moderate but significant antithrombotic activity; also recorded: demonstrated antithrombotic activity
[6]
  kidney fibrosis: inhibits fibrosis
  kidney function: improved kidney function
[7]
  antagonist of lysophosphatidic acid receptor 1 (LPAR1): potent antagonist
Tight skin (Tsk-1) mice
  progression of skin fibrosis: inhibit the progression of skin fibrosis at a similar level than imatinib
Models of thrombosis [8]
  antithrombotic activity: demonstrated antithrombotic activity
